Data as given in the supplement of paper PMC13207355.

Columns and labels:
Conditions in all cases: exposure time: 72 h
E13 [1] = patient-derived glioblastoma stem cells of classical subtype; test: surviving fraction (nuclei count normalised to DMSO); higher = more cells surviving (less toxic)
E21 [2] = patient-derived glioblastoma stem cells of mesenchymal subtype; test: as above
E28 [3] = patient-derived glioblastoma stem cells of classical subtype; test: as above
E31 [4] = patient-derived glioblastoma stem cells of proneural subtype; test: as above
E34 [5] = patient-derived glioblastoma stem cells of proneural subtype; test: as above
E57 [6] = patient-derived glioblastoma stem cells of mesenchymal subtype; test: as above
FT3469 [7] = normal neural stem cell line; test: as above
E13 [8] = test: phenotypic distance (Euclidean, principal components) from DMSO controls (arbitrary units); higher = stronger morphological change
E21 [9] = test: as above
E28 [10] = test: as above
E31 [11] = test: as above
E34 [12] = test: as above
E57 [13] = test: as above
FT3469 [14] = test: as above
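Throughout, for phenotypic distance (Euclidean, principal components) from DMSO controls: cell Painting imaging in 384-well plates, CellProfiler features reduced to at least 20 principal components, Euclidean distance versus same-plate DMSO vehicle wells (0.1% v/v), median over six images per well.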
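Throughout, for surviving fraction (nuclei count normalised to DMSO): nuclei counted by high-content imaging of Hoechst-stained cells in laminin-coated 384-well plates, relative to 0.1% DMSO vehicle wells, with staurosporine as cell-death control.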

Compound `CC[N+](CC)(CC)CCOc1ccc(/C=C/c2ccccc2)cc1` [MG 624] has a surviving fraction (E13 [1]; 4.1 nM) of 0.872, a surviving fraction (E13 [1]; 12.3 nM) of 1.01 and a surviving fraction (E13 [1]; 37 nM) of 0.904. For the same compound, the surviving fraction (E13 [1]; 111.1 nM) was 0.898, the surviving fraction (E13 [1]; 333.3 nM) was 0.819 and the surviving fraction (E13 [1]; 1000 nM) was 0.958. The surviving fraction (E13 [1]; 3000 nM) was 0.636, the surviving fraction (E21 [2]; 4.1 nM) was 0.978 and the surviving fraction (E21 [2]; 12.3 nM) was 0.972. It also gave a surviving fraction (E21 [2]; 37 nM) of 0.961, a surviving fraction (E21 [2]; 111.1 nM) of 1.05 and a surviving fraction (E21 [2]; 333.3 nM) of 1.02. The surviving fraction (E21 [2]; 1000 nM) was 0.929, the surviving fraction (E21 [2]; 3000 nM) was 0.748 and the surviving fraction (E28 [3]; 4.1 nM) was 1.04. The surviving fraction (E28 [3]; 12.3 nM) was 1.24, the surviving fraction (E28 [3]; 37 nM) was 0.999 and the surviving fraction (E28 [3]; 111.1 nM) was 1.11. The surviving fraction (E28 [3]; 333.3 nM) was 1.29, the surviving fraction (E28 [3]; 1000 nM) was 0.97 and the surviving fraction (E28 [3]; 3000 nM) was 0.897. The surviving fraction (E31 [4]; 4.1 nM) was 1.02, the surviving fraction (E31 [4]; 12.3 nM) was 1.02 and the surviving fraction (E31 [4]; 37 nM) was 0.927. For the same compound, the surviving fraction (E31 [4]; 111.1 nM) was 1.22, the surviving fraction (E31 [4]; 333.3 nM) was 1.03 and the surviving fraction (E31 [4]; 1000 nM) was 1.11. For the same compound, the surviving fraction (E31 [4]; 3000 nM) was 0.671, the surviving fraction (E34 [5]; 4.1 nM) was 1.13 and the surviving fraction (E34 [5]; 12.3 nM) was 0.931. The surviving fraction (E34 [5]; 37 nM) was 0.93, the surviving fraction (E34 [5]; 111.1 nM) was 0.904 and the surviving fraction (E34 [5]; 333.3 nM) was 1.06. It also gave a surviving fraction (E34 [5]; 1000 nM) of 1.1, a surviving fraction (E34 [5]; 3000 nM) of 0.853 and a surviving fraction (E57 [6]; 4.1 nM) of 0.981. It also gave a surviving fraction (E57 [6]; 12.3 nM) of 0.982, a surviving fraction (E57 [6]; 37 nM) of 1.06 and a surviving fraction (E57 [6]; 111.1 nM) of 1.1. The surviving fraction (E57 [6]; 333.3 nM) was 1.15, the surviving fraction (E57 [6]; 1000 nM) was 0.922 and the surviving fraction (E57 [6]; 3000 nM) was 1.05. For the same compound, the surviving fraction (FT3469 [7]; 4.1 nM) was 0.999, the surviving fraction (FT3469 [7]; 12.3 nM) was 0.934 and the surviving fraction (FT3469 [7]; 37 nM) was 1.26. For the same compound, the surviving fraction (FT3469 [7]; 111.1 nM) was 1.25, the surviving fraction (FT3469 [7]; 333.3 nM) was 1.13 and the surviving fraction (FT3469 [7]; 1000 nM) was 1.12. The surviving fraction (FT3469 [7]; 3000 nM) was 1.03, the phenotypic distance (E13 [8]; 4.1 nM) was 0.785 and the phenotypic distance (E13 [8]; 12.3 nM) was 1.16. For the same compound, the phenotypic distance (E13 [8]; 37 nM) was 0.769, the phenotypic distance (E13 [8]; 111.1 nM) was 0.848 and the phenotypic distance (E13 [8]; 333.3 nM) was 1.65. It also gave a phenotypic distance (E13 [8]; 1000 nM) of 2.21, a phenotypic distance (E13 [8]; 3000 nM) of 2.89 and a phenotypic distance (E21 [9]; 4.1 nM) of 0.724. For the same compound, the phenotypic distance (E21 [9]; 12.3 nM) was 0.703, the phenotypic distance (E21 [9]; 37 nM) was 0.669 and the phenotypic distance (E21 [9]; 111.1 nM) was 0.982. For the same compound, the phenotypic distance (E21 [9]; 333.3 nM) was 1.38, the phenotypic distance (E21 [9]; 1000 nM) was 1.38 and the phenotypic distance (E21 [9]; 3000 nM) was 2.84. For the same compound, the phenotypic distance (E28 [10]; 4.1 nM) was 2.26, the phenotypic distance (E28 [10]; 12.3 nM) was 1.2 and the phenotypic distance (E28 [10]; 37 nM) was 0.981. The phenotypic distance (E28 [10]; 111.1 nM) was 1.14, the phenotypic distance (E28 [10]; 333.3 nM) was 1.59 and the phenotypic distance (E28 [10]; 1000 nM) was 0.807. It also gave a phenotypic distance (E28 [10]; 3000 nM) of 0.948, a phenotypic distance (E31 [11]; 4.1 nM) of 2.31 and a phenotypic distance (E31 [11]; 12.3 nM) of 2.34. For the same compound, the phenotypic distance (E31 [11]; 37 nM) was 0.662, the phenotypic distance (E31 [11]; 111.1 nM) was 1.14 and the phenotypic distance (E31 [11]; 333.3 nM) was 1.83. It also gave a phenotypic distance (E31 [11]; 1000 nM) of 2.39, a phenotypic distance (E31 [11]; 3000 nM) of 3.97 and a phenotypic distance (E34 [12]; 4.1 nM) of 0.531. It also gave a phenotypic distance (E34 [12]; 12.3 nM) of 0.708, a phenotypic distance (E34 [12]; 37 nM) of 1 and a phenotypic distance (E34 [12]; 111.1 nM) of 0.94. It also gave a phenotypic distance (E34 [12]; 333.3 nM) of 1.4, a phenotypic distance (E34 [12]; 1000 nM) of 1.76 and a phenotypic distance (E34 [12]; 3000 nM) of 0.649. The phenotypic distance (E57 [13]; 4.1 nM) was 0.764, the phenotypic distance (E57 [13]; 12.3 nM) was 0.906 and the phenotypic distance (E57 [13]; 37 nM) was 0.99. The phenotypic distance (E57 [13]; 111.1 nM) was 1.14, the phenotypic distance (E57 [13]; 333.3 nM) was 1.29 and the phenotypic distance (E57 [13]; 1000 nM) was 1.55. The phenotypic distance (E57 [13]; 3000 nM) was 1.49, the phenotypic distance (FT3469 [14]; 4.1 nM) was 0.491 and the phenotypic distance (FT3469 [14]; 12.3 nM) was 1.05. It also gave a phenotypic distance (FT3469 [14]; 37 nM) of 0.814, a phenotypic distance (FT3469 [14]; 111.1 nM) of 1.61 and a phenotypic distance (FT3469 [14]; 333.3 nM) of 1.29. It also gave a phenotypic distance (FT3469 [14]; 1000 nM) of 1.26 and a phenotypic distance (FT3469 [14]; 3000 nM) of 1.36.
